Measured values published in patent US7691890B2, “Anti-viral uses of leflunomide products” (priority 1998, dated 2010).
Read-outs that look alike come from different tables or passages of the source.

Experiments:
[1] = cited from earlier work
Influenza A (H1N1) [2] = experiment: CPE inhibition test; format: cell-based; details: for CPE Inhibition test SI: Influenza A (H1N1), IC50 divided by EC50; for EC50: Influenza A virus, H1N1, MDCK, read-out: CPE Inhibition test EC50
Influenza A (H3N2) [3] = experiment: CPE inhibition test; format: cell-based; details: for CPE Inhibition test SI: Influenza A (H3N2), IC50 divided by EC50; for EC50: Influenza A virus, H3N2, MDCK, read-out: CPE Inhibition test EC50
Influenza B [4] = experiment: CPE inhibition test; format: cell-based; details: for EC50: Influenza B virus, MDCK, read-out: CPE Inhibition test EC50; for CPE Inhibition test SI: Influenza B, IC50 divided by EC50
Adenovirus Type 1 [5] = experiment: CPE inhibition test; format: cell-based, Adenovirus type 1 (65089/Chicago); details: IC50 divided by EC50
Measles Virus [6] = experiment: microbe, parasite or virus in culture; format: cell-based, Measles virus (Chicago strain); details: for CPE Inhibition test SI: IC50 divided by EC50
[7] = tested on: Parainfluenza Type 3 Virus; experiment: organism not typed; format: cell-based, parainfluenza type 3 virus (14702); details: for CPE Inhibition test SI: IC50 divided by EC50
[8] = tested on: Respiratory Syncytial Virus A; experiment: microbe, parasite or virus in culture; format: cell-based, Respiratory syncytial virus (RSV) (A2); details: for CPE Inhibition test SI: IC50 divided by EC50
Rhinovirus Type 5 [9] = format: cell-based; details: IC50 divided by EC50
Adenovirus Type 1 [10] = experiment: Neutral red uptake test; format: cell-based, Adenovirus type 1 (65089/Chicago); details: IC50 divided by EC50
Measles Virus [11] = experiment: microbe, parasite or virus in culture; format: cell-based, Measles virus (Chicago strain); details: for Neutral Red Uptake test SI: IC50 divided by EC50
[12] = tested on: Parainfluenza Type 3 Virus; experiment: organism not typed; format: cell-based, parainfluenza type 3 virus (14702); details: for Neutral Red Uptake test SI: IC50 divided by EC50
[13] = tested on: Respiratory Syncytial Virus A; experiment: microbe, parasite or virus in culture; format: cell-based, Respiratory syncytial virus (RSV) (A2); details: for Neutral Red Uptake test SI: IC50 divided by EC50
Rhinovirus Type 5 [14] = experiment: Neutral red uptake test; format: cell-based; details: IC50 divided by EC50
hepatitis B virus (HBV) = experiment: microbe, parasite or virus in culture; format: cell-based; details: for EC50 / EC90: Hepatitis B virus, 216 h; for EC90: HBV DNA, 9 day treatment
[15] = Toxicity to 2.2.15 cells by neutral red dye uptake; format: cell-based; details: human, 2.2.15 human liver cells
Description: Toxicity of test compounds to cultures of 2.2.15 cells was also determined as follows. Four concentrations of each compound were assayed and compared to untreated control cultures. Toxicity was determined by the uptake of neutral red dye, as determined by absorbance at 510 nm relative to untreated cells.

Influenza A (H1N1) [16] = experiment: Neutral red uptake test; details: IC50 divided by EC50
Influenza A (H3N2) [17] = experiment: Neutral red uptake test; details: IC50 divided by EC50
Influenza B [18] = experiment: Neutral red uptake test; details: IC50 divided by EC50
[19] = tested on: CMV pp65, 72 kD IE1, glycoprotein B (gB); experiment: Immunohistochemical staining of CMV proteins in infected HUVEC; format: cell-based; details: CMV VHL/E, 200 μM A771726 or 1 mM PFA
Description: Slides were incubated in the presence of absence of the agents for various intervals, acetone-fixed, and stained by the immunoperoxidase method.

CMV DNA = experiment: Dot blot quantitation of viral DNA in CMV-infected cells; format: cell-based; details: CMV P8-infected HFF, 48 hours, 100 μM A771726 or 1 mM PFA; identical results in HUVEC (200 μM)
Description: All experiments included infected cultures incubated in the presence of 1 mM PFA as well as uninfected controls. 48 hours post-inoculation cells were harvested by trypsin digestion, washed in PBS, and incubated for 12 hours at 50° C. in 0.1 mg/ml proteinase K (Sigma) in digestion buffer (100 mM NaCl, 10 mM Tris-HCl, 25 mM EDTA, 0.5% SDS). DNA was extracted in phenol/chloroform, precipitated with ammonium acetate/ethanol, and resuspended in TE buffer. Following equalization of concentrations, extracted DNA was serially diluted in 96-well microtiter plates and 0.4 M NaOH/10 mM EDTA was added to each well. DNA was denatured in sealed plates by heating for 10 minutes in a 100° C. waterbath, transferred to nylon membranes (Hybond N, Amersham) using a vacuum dotblot manifold (Bio-Rad Laboratories, Hercules, Calif.), and immobilized by UV cross-linking. The cDNA probe was generated by HindIII digest of cosmid pCM 1015 (Fleckenstein et al., Gene, 18:39, 1982) which contains ˜45 kb of the UL region of the CMV AD169 genome. The probe was α-[^32P]dCTP-labelled by random priming. Unincorporated isotope was removed from labelled probe using a G-50 spin column (Worthington Biochemicals). Membranes were hybridized, washed, and bound probe was detected by autoradiography.

CMV DNA polymerase = format: biochemical; details: extracts of VHL/E-infected HUVEC or P8-infected HFF, various concentrations
[20] = tested on: rat CMV (RCMV RA67, Maastricht strain); experiment: Rat CMV infection of immunodeficient nude rats, tissue plaque assay; format: in vivo; details: RCMV i.p., leflunomide 15 mg/kg/day for 14 days, 14 days post-inoculation
[21] = in vivo; cited from earlier work

Nc1ccn(C[C@@H](CO)OCP(=O)(O)O)c(=O)n1 [Cidofovir]
neutropenia ([1]; in vivo): approximately 10 % of recipients

Cc1nocc1C(=O)Nc1ccc(C(F)(F)F)cc1 [Compound 99-126, N-(4-trifluoromethylphenyl)-3-methylisoxazol-4-carboxamide]
CPE Inhibition test SI (Influenza A (H1N1) [2]): <3.2
EC50 (Influenza A (H1N1) [2]): > 20 µM
CPE Inhibition test SI (Influenza A (H3N2) [3]): 0
EC50 (Influenza A (H3N2) [3]): > 200 µM
EC50 (Influenza B [4]): 60 µM
CPE Inhibition test SI (Influenza B [4]): 1.2
CPE Inhibition test SI (Adenovirus Type 1 [5]): 0
CPE Inhibition test SI (Measles Virus [6]): 6
CPE Inhibition test SI [7]: 0
CPE Inhibition test SI [8]: 0
CPE Inhibition test SI (Rhinovirus Type 5 [9]): 1
Neutral Red Uptake test SI (Adenovirus Type 1 [10]): 0
Neutral Red Uptake test SI (Measles Virus [11]): 2
Neutral Red Uptake test SI [12]: 1
Neutral Red Uptake test SI [13]: 0
Neutral Red Uptake test SI (Rhinovirus Type 5 [14]): 0
EC50 (hepatitis B virus (HBV)): > 100 µM
EC90 (hepatitis B virus (HBV); 2.2.15 cells): > 100 µM
anti-viral effect on HBV (in words) (hepatitis B virus (HBV); summary of Table 2): some anti-viral effect
CC50 [15]: 110 µM
Neutral Red Uptake test SI (Influenza A (H1N1) [16]): 1.0
Neutral Red Uptake test SI (Influenza A (H3N2) [17]): 1.0
Neutral Red Uptake test SI (Influenza B [18]): 1.0

Cc1oncc1C(=O)Nc1cccc(C(F)(F)F)c1 [Compound 99-127, N-(3-trifluoromethylphenyl)-5-methylisoxazol-4-carboxamide]
CPE Inhibition test SI (Influenza A (H1N1) [2]): 0
EC50 (Influenza A (H1N1) [2]): > 200 µM
CPE Inhibition test SI (Influenza A (H3N2) [3]): 0
EC50 (Influenza A (H3N2) [3]): > 200 µM
EC50 (Influenza B [4]): > 200 µM
CPE Inhibition test SI (Influenza B [4]): 0
CPE Inhibition test SI (Measles Virus [6]): 0
CPE Inhibition test SI [7]: 0
CPE Inhibition test SI [8]: 0
Neutral Red Uptake test SI (Measles Virus [11]): 0
Neutral Red Uptake test SI [12]: 0
Neutral Red Uptake test SI [13]: 0
SI (hepatitis B virus (HBV); HBV, 2.2.15 cells): 0.7
EC50 (hepatitis B virus (HBV)): 11 µM
EC90 (hepatitis B virus (HBV); 2.2.15 cells): 96 µM
CC50 [15]: 67 µM
Neutral Red Uptake test SI (Influenza A (H1N1) [16]): 1.0
Neutral Red Uptake test SI (Influenza A (H3N2) [17]): 1.0
Neutral Red Uptake test SI (Influenza B [18]): 1.1

Nc1ncnc2c1ncn2C[C@@H](CO)OCP(=O)(O)O [HPMPA, reference compound]
CPE Inhibition test SI (Adenovirus Type 1 [5]): 8
Neutral Red Uptake test SI (Adenovirus Type 1 [10]): >20

O=C([O-])P(=O)(O)O.[Na+] [PFA, sodium phosphonoformate]
expression of CMV pp65 and IE1 ([19]; 24-48 hr pi): unimpeded
expression of CMV late structural glycoprotein B (gB) ([19]; 96 hours pi): unable to express gB
quantity of viral DNA synthesized (CMV DNA): no detectable CMV DNA
CMV DNA polymerase activity (CMV DNA polymerase): complete inhibition at 1 mM
frequency of each toxicity (renal dysfunction, hypomagnesemia, hypokalemia, hypocalcemia, seizures, fever, rash) ([1]; intravenous foscarnet): more than 5% of recipients

Cc1oncc1C(=O)Nc1ccc(C(F)(F)F)cc1 [leflunomide, N-(4-trifluoromethylphenyl)-5-methylisoxazol-4-carboxamide]
viral load in salivary glands, lungs and spleens [20]: significantly reduced viral load
toxicity in animal studies [21]: liver and cardiac toxicity

NC(=O)c1ncn([C@@H]2O[C@H](CO)[C@@H](O)[C@H]2O)n1 [ribavirin, reference compound]
EC50 (Measles Virus [6]; Measles morbillivirus, CV-1 cells, read-out: CPE Inhibition test EC50): 41 µM
EC50 ([7]; MA104, MA-104 cells, read-out: CPE Inhibition test EC50): 230 µM
EC50 ([8]; human respiratory syncytial virus, MA104, MA-104 cells, read-out: CPE Inhibition test EC50): 290 µM
EC50 (Measles Virus [11]; Measles morbillivirus, CV-1 cells, read-out: Neutral Red Uptake test EC50): 41 µM
EC50 ([12]; MA104, MA-104 cells, read-out: Neutral Red Uptake test EC50): 120 µM
EC50 ([13]; human respiratory syncytial virus, MA104, MA-104 cells, read-out: Neutral Red Uptake test EC50): 82 µM

O=c1ccn([C@@H]2O[C@H](CO)[C@@H](O)[C@H]2O)c(=O)[nH]1 [uridine]
EC50 (hepatitis B virus (HBV)): > 100 µM
EC90 (hepatitis B virus (HBV); 2.2.15 cells): > 100 µM
CC50 [15]: > 100 µM
